Active and inactive are the calls of the source. The rule behind the calls is not given here. Peptide text beside a SMILES is read from it.
Experiments:
[1] = target: T1, E3 ubiquitin-protein ligase XIAP (Homo sapiens, UniProt P98170); experiment: Inhibition of XIAP in HEK293 cell lysate assessed as release of caspase-3 from BIR3 measuring formation of fluorescent AFC from DEVD-AFC by fluorimetry; format: cell-free
[2] = target: T1, E3 ubiquitin-protein ligase XIAP; experiment: Inhibition of XIAP in HEK293 cell lysate assessed as release of caspase-9 from BIR3 measuring formation of fluorescent AFC from LEHD-AFC by fluorimetry; format: cell-free
[3] = target: T1, E3 ubiquitin-protein ligase XIAP; experiment: Displacement of fluorescent H-Abu-Arg-Pro-Phe-Lys-NH-FAM-NH2 peptide from XIAP BIR3 domain by fluorescence polarization assay

T1 sequence (P98170 whole entry): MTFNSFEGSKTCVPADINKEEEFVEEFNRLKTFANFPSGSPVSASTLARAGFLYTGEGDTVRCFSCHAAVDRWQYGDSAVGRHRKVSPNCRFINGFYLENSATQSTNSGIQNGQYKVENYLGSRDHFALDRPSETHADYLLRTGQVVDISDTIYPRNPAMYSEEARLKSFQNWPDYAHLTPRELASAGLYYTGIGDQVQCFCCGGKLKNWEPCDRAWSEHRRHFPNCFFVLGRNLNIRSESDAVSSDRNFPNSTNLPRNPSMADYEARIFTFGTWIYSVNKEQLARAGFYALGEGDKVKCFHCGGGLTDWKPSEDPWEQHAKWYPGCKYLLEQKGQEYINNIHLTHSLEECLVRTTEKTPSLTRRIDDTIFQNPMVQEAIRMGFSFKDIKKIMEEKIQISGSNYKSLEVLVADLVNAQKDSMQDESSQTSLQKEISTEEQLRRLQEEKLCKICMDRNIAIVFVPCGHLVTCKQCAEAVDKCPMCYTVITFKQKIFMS

Row | inhibition [1] | inhibition [2] | IC50 [3] [nM] | Activity [3] | Compound
1 | Dose-dependent effect | Dose-dependent effect | 560 | – | CC[C@H](C)[C@H](NC(=O)[C@@H]1CCCN1C(=O)[C@H](CS)NC(=O)[C@H](C)N)C(=O)NCCOCCOCC(=O)NCCN(CC(=O)NCCN(CC(=O)NCCN(CC(=O)NCCN(CC(=O)NCCN(CC(=O)NCCN(CC(=O)NCCN(CC(=O)NCC(N)=O)C(=O)Cn1cnc2c(=O)[nH]c(N)nc21)C(=O)Cn1cnc2c(N)ncnc21)C(=O)Cn1ccc(N)nc1=O)C(=O)Cn1cnc2c(N)ncnc21)C(=O)Cn1cc(C)c(=O)[nH]c1=O)C(=O)Cn1ccc(N)nc1=O)C(=O)Cn1ccc(N)nc1=O
2 | Dose-dependent effect | Dose-dependent effect | 1520 | – | CC[C@H](C)[C@H](NC(=O)[C@@H]1CCCN1C(=O)[C@H](CS)NC(=O)[C@H](C)N)C(=O)N[C@@H](C)C(=O)N[C@@H](CCC(N)=O)C(=O)N[C@@H](CCCCN)C(=O)NCCN(CC(=O)NCCN(CC(=O)NCCN(CC(=O)NCCN(CC(=O)NCCN(CC(=O)NCCN(CC(=O)NCCN(CC(=O)NCC(N)=O)C(=O)Cn1cnc2c(=O)[nH]c(N)nc21)C(=O)Cn1cnc2c(N)ncnc21)C(=O)Cn1ccc(N)nc1=O)C(=O)Cn1cnc2c(N)ncnc21)C(=O)Cn1cc(C)c(=O)[nH]c1=O)C(=O)Cn1ccc(N)nc1=O)C(=O)Cn1ccc(N)nc1=O
3 | – | – | – | inactive | CC[C@H](C)[C@H](NC(=O)[C@@H]1CCCN1C(=O)[C@@H](N)CS)C(=O)N[C@@H](C)C(=O)N[C@@H](CCC(N)=O)C(=O)N[C@@H](CCCCN)C(=O)NCCN(CC(=O)NCCN(CC(=O)NCCN(CC(=O)NCCN(CC(=O)NCCN(CC(=O)NCCN(CC(=O)NCCN(CC(=O)NCC(N)=O)C(=O)Cn1cnc2c(=O)[nH]c(N)nc21)C(=O)Cn1cnc2c(N)ncnc21)C(=O)Cn1ccc(N)nc1=O)C(=O)Cn1cnc2c(N)ncnc21)C(=O)Cn1cc(C)c(=O)[nH]c1=O)C(=O)Cn1ccc(N)nc1=O)C(=O)Cn1ccc(N)nc1=O

Further lines, the compound ahead of its results:

Row | Compound | inhibition [1] | inhibition [2] | IC50 [3] [nM] | Activity [3]
4 | CC[C@H](C)[C@H](NC(=O)[C@@H]1CCCN1C(=O)[C@@H](N)CS)C(=O)NCCOCCOCC(=O)NCCN(CC(=O)NCCN(CC(=O)NCCN(CC(=O)NCCN(CC(=O)NCCN(CC(=O)NCCN(CC(=O)NCCN(CC(=O)NCC(N)=O)C(=O)Cn1cnc2c(=O)[nH]c(N)nc21)C(=O)Cn1cnc2c(N)ncnc21)C(=O)Cn1ccc(N)nc1=O)C(=O)Cn1cnc2c(N)ncnc21)C(=O)Cn1cc(C)c(=O)[nH]c1=O)C(=O)Cn1ccc(N)nc1=O)C(=O)Cn1ccc(N)nc1=O | – | – | – | inactive
5 | CC[C@H](C)[C@H](NC(=O)[C@@H]1CCCN1C(=O)[C@H](CS)NC(=O)[C@H](C)N)C(=O)O (H-ACPI-OH) | – | – | 650 | –
6 | CC(=O)NCCN(CC(=O)NCCN(CC(=O)NCCN(CC(=O)NCCN(CC(=O)NCCN(CC(=O)NCCN(CC(=O)NCCN(CC(=O)NCCN(CC(=O)N[C@@H](CCCCNC(=O)CCSC(=O)[C@H](C)N)C(N)=O)C(=O)Cn1ccc(N)nc1=O)C(=O)Cn1cnc2c(N)ncnc21)C(=O)Cn1ccc(N)nc1=O)C(=O)Cn1ccc(N)nc1=O)C(=O)Cn1ccc(N)nc1=O)C(=O)Cn1ccc(N)nc1=O)C(=O)Cn1cc(C)c(=O)[nH]c1=O)C(=O)Cn1cc(C)c(=O)[nH]c1=O | – | – | – | inactive

— ChEMBL document CHEMBL1938340, “DNA-instructed acyl transfer reactions for the synthesis of bioactive peptides” (Bioorg Med Chem Lett, 2011)
